Results: patent publication US8492377B2, “MTKI quinazoline derivatives” (Janssen Pharmaceutica NV, priority 2006, dated 2013)

Tests used:
[1] = target: human Fyn (Homo sapiens, UniProt P06241); assay: C2: Fyn kinase assay; format: biochemical; conditions: 5 ng human Fyn, 1.0 μM unlabeled ATP, poly(Glu,Tyr) 4:1, 25° C., 10 minutes; for IC50: read-out: C2: Fyn kinase pIC50 (converted)
Description: In this assay the Fyn kinase reaction is performed at 25° C. for 10 minutes in a 96-well microtiterplate. The 25 μl reaction volume contains 8 mM MOPS pH 7.0, 20 mM Mg-acetate, 0.2 mM Na2EDTA, 0.5 mM MnCl2, 1.0 μM unlabeled ATP, 0.2 μCi AT^33P, 20 ng poly(Glu,Tyr) 4:1 and 5 ng human Fyn.
(§1) The reaction is stopped by adding 5 μl of a 3% phosphoric acid solution. 5 μl of the reaction mixture is then spotted onto a Filtermat A filter (Wallac) and washed 3 times for 5 min. in 75 mM phosphoric acid and 1 time for 5 min. in methanol prior to drying and scintillation counting.

[2] = target: human Src (Homo sapiens, UniProt P12931); assay: C1: c-Src filter assay; format: biochemical; conditions: 5 ng human Src, 1.0 μM unlabeled ATP, poly(Glu,Tyr) 4:1, 25° C., 10 minutes; read-out: C1: c-SRC filter pIC50 (converted)
human Src, sequence (P12931 whole entry): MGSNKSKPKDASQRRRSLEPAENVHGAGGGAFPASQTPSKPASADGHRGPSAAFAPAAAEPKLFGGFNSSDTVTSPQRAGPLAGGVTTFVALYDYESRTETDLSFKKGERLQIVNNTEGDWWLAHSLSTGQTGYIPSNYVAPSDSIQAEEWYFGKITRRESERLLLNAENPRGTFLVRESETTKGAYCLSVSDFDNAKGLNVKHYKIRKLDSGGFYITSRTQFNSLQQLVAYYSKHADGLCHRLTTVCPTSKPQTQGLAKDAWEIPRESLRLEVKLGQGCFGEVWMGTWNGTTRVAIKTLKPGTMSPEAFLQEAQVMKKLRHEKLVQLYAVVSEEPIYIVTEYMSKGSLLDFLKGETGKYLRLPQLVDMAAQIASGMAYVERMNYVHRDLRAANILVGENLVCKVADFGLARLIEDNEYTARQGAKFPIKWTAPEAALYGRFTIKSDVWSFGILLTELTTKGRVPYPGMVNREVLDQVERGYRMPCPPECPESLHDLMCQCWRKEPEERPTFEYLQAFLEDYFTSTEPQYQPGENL
Description: The in vitro inhibition of c-Src kinase was assessed using the glass-fiber filter technology as described by Davies, S. P. et al., Biochem J. (2000), 351; p. 95-105.
In the glass-fiber filter technology the activity of the kinase is measured using an appropriate substrate that is incubated with the aforementioned kinase protein in the presence of (^33P) radiolabeled ATP. (^33P) Phosporylation of the substrate is subsequently measured as radioactivity bound on a glassfiber-filter.
In an alternative filter based assay the final kinase activity was assessed using a phosphostorage screen instead of scintilation counting.
In this assay the Src kinase reaction is performed at 25° C. for 10 minutes in a 96-well microtiterplate. The 25 μl reaction volume contains 8 mM MOPS pH 7.0, 20 mM Mg-acetate, 0.2 mM Na2EDTA, 0.5 mM MnCl2, 1.0 μM unlabeled ATP, 0.2 μCi AT^33P, 20 ng poly(Glu,Tyr) 4:1 and 5 ng human Src.
as §1, with “quantification on the Typhoon (Amersham) using a phosphostorage screen.” for “scintillation counting.”

human Fyn, sequence (P06241 whole entry): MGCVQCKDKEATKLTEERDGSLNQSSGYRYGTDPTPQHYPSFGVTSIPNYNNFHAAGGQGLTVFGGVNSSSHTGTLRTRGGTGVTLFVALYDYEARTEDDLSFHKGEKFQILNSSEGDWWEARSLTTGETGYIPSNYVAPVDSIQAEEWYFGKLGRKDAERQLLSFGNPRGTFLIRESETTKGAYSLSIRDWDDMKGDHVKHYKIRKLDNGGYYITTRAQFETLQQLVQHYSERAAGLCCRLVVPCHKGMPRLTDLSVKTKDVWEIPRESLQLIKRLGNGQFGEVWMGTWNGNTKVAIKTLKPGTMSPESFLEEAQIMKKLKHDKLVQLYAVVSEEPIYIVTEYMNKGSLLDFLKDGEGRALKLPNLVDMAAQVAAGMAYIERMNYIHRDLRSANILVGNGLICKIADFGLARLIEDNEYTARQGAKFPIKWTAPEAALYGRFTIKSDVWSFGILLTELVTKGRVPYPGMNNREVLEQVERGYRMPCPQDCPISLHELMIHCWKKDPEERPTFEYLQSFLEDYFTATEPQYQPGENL

IC50 [1] [nM] | IC50 [2] [nM] | C2: Fyn kinase pIC50 [1] | Compound
204 | – | – | COc1cc2ncnc3c2cc1OCCCCCN(C(=O)OCc1ccccc1)Cc1ccc2c(c1N3)OCO2 [Compound A8]
< 1000 | 2290 | – | COc1cc2ncnc3c2cc1OCCCCCNCc1ccc2c(c1N3)OCO2 [Compound A9]
– | 2570 | >6 | COc1cc2ncnc3c2cc1OCCCCCNCc1ccc2c(c1N3)OCO2 [Compound A10]
18.2 | – | – | COc1cc2ncnc3c2cc1OCCCCCN(C)Cc1ccc2c(c1N3)OCO2 [Compound A11]
34.7 | > 10000 | – | CN1CCCCCOc2cc3c(ncnc3cc2O)Nc2c(ccc3c2OCO3)C1 [Compound A12]
6.92 | 186 | – | COc1cc2ncnc3c2cc1OCCCN(S(=O)(=O)c1ccccc1[N+](=O)[O-])CCN(C)Cc1ccc2c(c1N3)OCO2 [Compound A20]
39.8 | 3240 | – | COc1cc2ncnc3c2cc1OCCCNCCN(C)Cc1ccc2c(c1N3)OCO2 [Compound A22]
> 1000 | > 10000 | – | CN1CCNCCCOc2cc3c(ncnc3cc2O)Nc2c(ccc3c2OCO3)C1 [Compound A23]
> 1000 | > 10000 | – | CN1CCN(C(=O)OC(C)(C)C)CCCOc2cc3c(ncnc3cc2O)Nc2c(ccc3c2OCO3)C1 [Compound A24]
> 1000 | – | – | CN1CCN(C(=O)OC(C)(C)C)CCCOc2cc3c(ncnc3cc2OC(=O)OC(C)(C)C)Nc2c(ccc3c2OCO3)C1 [Compound A25]
22.4 | 2240 | – | CN1CCN(CCCOc2cc3ncnc4c3cc2OCCCN(C(=O)OC(C)(C)C)CCN(C)Cc2ccc3c(c2N4)OCO3)CC1 [Compound A27]
< 1000 | > 10000 | – | COCCOCCOc1cc2ncnc3c2cc1OCCCN(C(=O)OC(C)(C)C)CCN(C)Cc1ccc2c(c1N3)OCO2 [Compound A28]
43.7 | 2630 | – | CN(CCO)CCCOc1cc2ncnc3c2cc1OCCCN(C(=O)OC(C)(C)C)CCN(C)Cc1ccc2c(c1N3)OCO2 [Compound A29]
245 | 3310 | – | COc1cc2ncnc3c2cc1OCCCNC(=O)[C@H](C)N(C)Cc1ccc2c(c1N3)OCO2 [Compound A38]
> 1000 | > 10000 | – | C[C@H]1C(=O)NCCCOc2cc3c(ncnc3cc2O)Nc2c(ccc3c2OCO3)CN1C [Compound A40]
64.6 | – | – | C[C@H]1C(=O)NCCCOc2cc3c(ncnc3cc2OCCCN2CCOCC2)Nc2c(ccc3c2OCO3)CN1C [Compound A42]
69.2 | – | – | CN1CCN(C(=O)OC(C)(C)C)CCCOc2cc3c(ncnc3cc2OCCCN2CCC(S(C)(=O)=O)CC2)Nc2c(ccc3c2OCO3)C1 [Compound A54]
18.2 | 933 | – | CN1CCCCCOc2cc3c(ncnc3cc2OCCCN)Nc2c(ccc3c2OCO3)C1 [Compound A57]
> 1000 | – | – | COc1cc2ncnc3c2cc1OCCCCCN(C(=O)OCc1ccccc1)Cc1cc(Oc2ccc(C)nc2)c2c(c1N3)OCO2 [Compound A68]
< 1 | 537 | – | CN1CCCCCOc2cc3c(ncnc3cc2OC[C@@H](O)CN2CCCCC2)Nc2c(ccc3c2OCO3)C1 [Compound B1]
38 | – | – | C[C@H]1C(=O)NCCCOc2cc3c(ncnc3cc2OCCCN2CCOCC2)Nc2c(ccc3c2OCO3)CN1C [Compound B6]
91.2 | – | – | COCCOCCOc1cc2ncnc3c2cc1OCCCNC(=O)[C@H](C)N(C)Cc1ccc2c(c1N3)OCO2 [Compound B7]
19.5 | – | – | CN1CCNCCCOc2cc3c(ncnc3cc2OCCCN2CCC(S(C)(=O)=O)CC2)Nc2c(ccc3c2OCO3)C1 [Compound B14]
< 1000 | – | – | Brc1cc2c(c3c1OCO3)Nc1ncnc3cc(OCCCN4CCCC4)c(cc13)OCCCCCNC2 [Compound B27]
< 1000 | – | – | CN1CCN(CCCOc2cc3ncnc4c3cc2OCCCCCNCc2cc(Br)c3c(c2N4)OCO3)CC1 [Compound B28]

IC50 [1] [nM] | IC50 [2] [nM] | C2: Fyn kinase pIC50 [1] | Compound
38 | – | – | CCOC(CCOc1cc2ncnc3c2cc1OCCCCCN(C)Cc1ccc2c(c1N3)OCO2)OCC [Compound B32]
13.2 | – | – | COCCOc1cc2ncnc3c2cc1OCCCCCNCc1ccc2c(c1N3)OCO2 [Compound B33]
38 | – | – | C[C@H]1C(=O)NCCCOc2cc3c(ncnc3cc2OCCCN2CCS(=O)(=O)CC2)Nc2c(ccc3c2OCO3)CN1C [Compound B36]
138 | – | – | COCCNCCCOc1cc2ncnc3c2cc1OCCCNC(=O)[C@H](C)N(C)Cc1ccc2c(c1N3)OCO2 [Compound B38]
129 | – | – | C[C@H]1C(=O)NCCCOc2cc3c(ncnc3cc2OCCCNCCO)Nc2c(ccc3c2OCO3)CN1C [Compound B39]
214 | – | – | C[C@H]1C(=O)NCCCOc2cc3c(ncnc3cc2OCCCN(C)CCO)Nc2c(ccc3c2OCO3)CN1C [Compound B40]
81.3 | – | – | COCCOc1cc2ncnc3c2cc1OCCCNC(=O)[C@H](C)N(C)Cc1ccc2c(c1N3)OCO2 [Compound B41]
282 | – | – | C[C@H]1C(=O)NCCCOc2cc3c(ncnc3cc2OC[C@@H]2CO2)Nc2c(ccc3c2OCO3)CN1C [Compound B42]
209 | – | – | Oc1cc2ncnc3c2cc1OCCCCCNCc1cc(Br)c2c(c1N3)OCO2 [Compound B44]
89.1 | – | – | CN1CCCCCOc2cc3c(ncnc3cc2O)Nc2c(cc(Br)c3c2OCO3)C1 [Compound B48]
> 1000 | – | – | COc1cc2ncnc3c2cc1OCCCCN(C(=O)OCc1ccccc1)CCc1ccc2c(c1N3)OCO2 [Compound B50]
110 | – | – | COc1cc2ncnc3c2cc1OCCCCN(C)CCc1ccc2c(c1N3)OCO2 [Compound B53]
51.3 | – | – | C[C@H]1C(=O)NCCCOc2cc3c(ncnc3cc2OCCCN2CCN(CCO)CC2)Nc2c(ccc3c2OCO3)CN1C [Compound B54]
85.1 | – | – | C[C@H]1C(=O)NCCCOc2cc3c(ncnc3cc2OCCCN2CCC(S(C)(=O)=O)CC2)Nc2c(ccc3c2OCO3)CN1C [Compound B56]
26.3 | – | – | C[C@H]1C(=O)NCCCOc2cc3c(ncnc3cc2OCCCN2CCN(C)CC2)Nc2c(ccc3c2OCO3)CN1C [Compound B57]
33.1 | – | – | C[C@H]1C(=O)NCCCOc2cc3c(ncnc3cc2OCCCN2CCN(C)CC2)Nc2c(ccc3c2OCO3)CN1C [Compound B58]
42.7 | – | – | C[C@H]1C(=O)NCCCOc2cc3c(ncnc3cc2OCCCN2CCN(C(=O)CCS(C)(=O)=O)CC2)Nc2c(ccc3c2OCO3)CN1C [Compound B59]
37.2 | – | – | CC(=O)NCCN1CCN(CCCOc2cc3ncnc4c3cc2OCCCNC(=O)[C@H](C)N(C)Cc2ccc3c(c2N4)OCO3)CC1 [Compound B60]
200 | – | – | C[C@H]1C(=O)NCCCOc2cc3c(ncnc3cc2OC[C@@H](O)CN2CCC(O)CC2)Nc2c(ccc3c2OCO3)CN1C [Compound B62]
< 1000 | – | – | CN1CCCCCOc2cc3c(ncnc3cc2OCCCN2CCN(CCO)CC2)Nc2c(cc(Br)c3c2OCO3)C1 [Compound B66]
< 1000 | – | – | CN(CCO)CCCOc1cc2ncnc3c2cc1OCCCCCN(C)Cc1cc(Br)c2c(c1N3)OCO2 [Compound B72]
69.2 | – | – | COc1cc2ncnc3c2cc1OCCCNC(=O)[C@H](C)N(C)Cc1cc(Cl)c2c(c1N3)OCO2 [Compound B74]
316 | – | – | COc1cc2ncnc3c2cc1OCCCN(C)C(=O)[C@H](C)N(C)Cc1cc(Cl)c2c(c1N3)OCO2 [Compound B76]
> 1000 | – | – | COc1cc2ncnc3c2cc1OCCCN(C)C(=O)[C@H](C)N(C)Cc1ccc2c(c1N3)OCO2 [Compound B78]

Compound | IC50 [1] [nM] | IC50 [2] [nM] | C2: Fyn kinase pIC50 [1]
C[C@H]1C(=O)NCCCOc2cc3c(ncnc3cc2OCCCN2CCC(CCS(C)(=O)=O)CC2)Nc2c(ccc3c2OCO3)CN1C [Compound B55] | 115 | – | –
